Reference: patent US20240294551A1 (AMGEN INC., priority 2022, published 2024)
pIC50: −log10 of the molar value.

Tests used:
MIA PaCa-2 cells = test: MIA PaCa-2 CTG Assay (CellTiter-Glo cell viability); format: cell-based, human; conditions: Homo sapiens; Mia PaCa-2, 72 h; second value of the cell; read-out: G12D/C/V Cell Proliferation CTG (72 h) Mia PaCa-2
Description: MIA PaCa-2 CTG Assay Protocol
MIA PaCa-2 (human pancreatic carcinoma; ATCC CRL-1420) cells were cultured in RPMI 1640 medium containing 10% fetal bovine serum and 1× penicillin/streptomycin/L-glutamine. Cells were seeded in 384-well plates at a density of 1.67E+04 cells/mL and incubated at 37° C., 5% CO2, overnight. Serially-diluted compound or DMSO was added to the cells, and plates were incubated at 37° C., 5% CO2 for 72 h. Cell viability was measured using a CellTiter-Glo® Luminescent Cell Viability Assay kit (Promega) according to the manufacturer's protocol. The luminescence signal of treated samples was normalized to DMSO control, and data were analyzed using a 4-parameter logistic model to calculate IC50 values.

[1] = system: Phosphorylation of ERK1/2 in AsPC-1 cells; test: Phospho-ERK1/2 MSD Assay; format: cell-based, human; conditions: Homo sapiens, ASPC1, 2 h, read-out: 2 h p-ERK (AsPC-1 cells), IC50
Procedure, shortened: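 Read-out: MSD electrochemiluminescent detection of phosphorylated ERK1/2 in whole-cell lysates, fitted to a 4-parameter logistic curve for IC50. Prior to lysis, AsPC-1 cells (25,000 per well) received a 2 h compound dose-response at 37 °C.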

[2] = molecular target: His-tagged KRAS G12D protein (Homo sapiens (Human), UniProt P01116, G12D); test: KRAS G12D TR-FRET Assay; format: binding; conditions: read-out: KRAS G12D Binding IC50
Procedure, shortened: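 Each incubation ran at room temperature: enzyme with compound for 30 minutes, peptide for one hour, and detection reagents (0.4 nM europium anti-6×His, 5 nM streptavidin-d2) for one hour more. Protein and peptide stocks were each diluted to 20 nM before addition.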

AsPC-1 cells = test: AsPC-1 CTG Assay (CellTiter-Glo cell viability); format: cell-based, human; conditions: Homo sapiens, ASPC1, 72 h, AsPC-1, 72 h; first value of the cell; read-out: G12D/C/V Cell Proliferation CTG (72 h) AsPC-1
Procedure, shortened: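 IC50 values derive from 4-parameter logistic fits of CellTiter-Glo luminescence, expressed relative to DMSO. Compound dilution series were applied to overnight-seeded AsPC-1 or SW620 cells (RPMI 1640, 10% FBS) for 72 h at 37 °C, 5% CO2.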

[3] = molecular target: GDP-bound KRAS protein (aa 1-169), containing both G12D and C118A amino acid substitutions (Homo sapiens (Human), UniProt P01116, C118A/G12D); test: KRAS G12D Coupled Nucleotide Exchange Assay; format: biochemical; conditions: read-out: KRAS G12D Coupled Exchange IC50
GDP-bound KRAS protein (aa 1-169), containing both G12D and C118A amino acid substitutions, sequence (P01116 other isoform, or with tags, fused parts or gaps G12D/C118A): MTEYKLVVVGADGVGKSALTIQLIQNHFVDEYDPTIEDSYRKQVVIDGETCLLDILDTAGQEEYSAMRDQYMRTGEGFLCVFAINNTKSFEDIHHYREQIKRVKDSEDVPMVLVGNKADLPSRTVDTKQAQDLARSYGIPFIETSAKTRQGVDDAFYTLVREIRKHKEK

His-tagged KRAS G12D protein, sequence (P01116 other isoform, or with tags, fused parts or gaps G12D): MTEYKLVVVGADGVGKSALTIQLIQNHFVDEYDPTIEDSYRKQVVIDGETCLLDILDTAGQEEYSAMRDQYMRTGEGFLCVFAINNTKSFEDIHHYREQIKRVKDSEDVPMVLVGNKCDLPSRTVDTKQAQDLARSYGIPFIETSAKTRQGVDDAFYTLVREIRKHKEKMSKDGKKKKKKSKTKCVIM

| Structure (SMILES) | pIC50 (MIA PaCa-2 cells) | pIC50 [1] | pIC50 [2] | pIC50 (AsPC-1 cells) | pIC50 [3] | IC50 [3] [nM] |
| --- | --- | --- | --- | --- | --- | --- |
| Cc1cc2[nH]ncc2c2c1CCCCC(=O)O[C@@H]1COCCN(C1)c1nc(OC[C@@]34CCCN3C[C@H](F)C4)nc3c(F)c-2ncc13 [Example 83, (26S)-32-fluoro-4-(((2R,7aS)-2-fluorotetrahydro-1H-pyrrolo[1,2-a]pyrrol-7a(5H)-yl)methoxy)-18-methyl-25,28-dioxa-1,3,5,9,14,15-hexaazahexacyclo[24.4.1.1~6,10~.0~2,7~.0~11,19~.0~12,16~]dotriaconta-2,4,6,8,10(32),11,13,16,18-nonaen-24-one] | 7.40 | 7.82 | 8.40 | 6.80 | 8.52 | – |
| O=C1CCCCc2c(Cl)cc3[nH]ncc3c2-c2ncc3c(nc(OC[C@@]45CCCN4C[C@H](F)C5)nc3c2F)N2CCOC[C@H](C2)O1 [Example 84, (26S)-18-chloro-32-fluoro-4-(((2R,7aS)-2-fluorotetrahydro-1H-pyrrolo[1,2-a]pyrrol-7a(5H)-yl)methoxy)-25,28-dioxa-1,3,5,9,14,15-hexaazahexacyclo[24.4.1.1~6,10~.0~2,7~.0~11,19~.0~12,16~]dotriaconta-2,4,6,8,10(32),11,13,16,18-nonaen-24-one] | 7.70 | 8.40 | 8.70 | 7.30 | 9.00 | – |
| C[C@@]12CCCCN(C1)c1nc(OC[C@@]34CCCN3C[C@H](F)C4)nc3c(F)c(ncc13)-c1c(c(Cl)cc3[nH]ncc13)CCCOC(=O)N2 [Example 290, (26R)-18-chloro-32-fluoro-4-(((2R,7aS)-2-fluorotetrahydro-1H-pyrrolo[1,2-a]pyrrol-7a(5H)-yl)methoxy)-26-methyl-23-oxa-1,3,5,9,14,15,25-heptaazahexacyclo[24.4.1.1~6,10~.0~2,7~.0~11,19~.0~12,16~]dotriaconta-2,4,6(32),7,9,11,13,16,18-nonaen-24-one] | 7.49 | 8.51 | 8.40 | 7.44 | 8.70 | – |
| Cc1cc2[nH]ncc2c2c1CCCC(=O)OCC1CCCN(C1)c1nc(OC[C@@]34CCCN3C[C@H](F)C4)nc3c(F)c-2ncc13 (stereo partly drawn) [Example 104] | 6.52 | 7.42 | 8.15 | 6.07 | 8.70 | – |
| [2H]C([2H])([2H])[C@@]12COCCN(C1)c1nc(OC[C@@]34CCCN3C[C@H](F)C4)nc3c(F)c(ncc13)-c1c(c(Cl)cc3[nH]ncc13)CCCOC(=O)O2 [Example 353, (26S)-18-chloro-32-fluoro-4-(((2R,7aS)-2-fluorotetrahydro-1H-pyrrolo[1,2-a]pyrrol-7a(5H)-yl)methoxy)-26-(~2~H_3_)methyl-23,25,28-trioxa-1,3,5,9,14,15-hexaazahexacyclo[24.4.1.1~6,10~.0~2,7~.0~11,19~.0~12,16~]dotriaconta-2,4,6(32),7,9,11,13,16,18-nonaen-24-one] | 8.52 | 8.72 | 8.52 | 7.66 | – | 1 |
| O=C1OCC[C@@H]2CCc3cc4[nH]ncc4c(c32)-c2ncc3c(nc(OC[C@@]45CCCN4C[C@H](F)C5)nc3c2F)N2CCOC[C@H](C2)O1 [Example 367, (16S,22S)-34-fluoro-8-(((2R,7aS)-2-fluorotetrahydro-1H-pyrrolo[1,2-a]pyrrol-7a(5H)-yl)methoxy)-14,17,19-trioxa-3,7,9,11,28,29-hexaazaheptacyclo[20.9.1.1~2,6~.1~11,16~.0~5,10~.0~25,32~.0~27,31~]tetratriaconta-1(31),2(34),3,5,7,9,25(32),26,29-nonaen-18-one] | 7.59 | 8.04 | 8.40 | 6.86 | 8.70 | – |
